Results published in patent US10221197B2, “Phosphatidylinositol 3-kinase inhibitors” (Gilead Sciences, Inc., priority 2014, dated 2019).
Read-outs that look alike come from different tables or passages of the source.

What was measured:
[1] = biological target: PI3Kγ (Homo sapiens (Human), UniProt P48736); assay: TR-FRET enzymatic assay of PI3K isoforms (PI3Kγ); format: biochemical; conditions: read-out: γ IC50
Procedure: (§1) The compounds of formula (I) were characterized for their enzymatic activity against the PI3K isoforms. Certain compounds of the present application, including certain compounds of formula (II) and (III) were also characterized for their enzymatic activity against PI3K isoforms. The activities were measured using a time-resolved fluorescence resonance energy transfer (TR-FRET) assay.

[2] = biological target: PI3Kβ (Homo sapiens (Human), UniProt P42338); assay: TR-FRET enzymatic assay of PI3K isoforms (PI3Kβ); format: biochemical; conditions: for IC50: TR-FRET, 2×Km ATP, 2 μM PIP2, incubated for 30 minutes at 25° C., read-out: β IC50; for PI3Kγ/PI3Kβ ratio: ratio of IC50 values, selectivity for PI3Kβ over PI3Kγ
Chain of PI3Kβ (P42338 whole entry, canonical isoform): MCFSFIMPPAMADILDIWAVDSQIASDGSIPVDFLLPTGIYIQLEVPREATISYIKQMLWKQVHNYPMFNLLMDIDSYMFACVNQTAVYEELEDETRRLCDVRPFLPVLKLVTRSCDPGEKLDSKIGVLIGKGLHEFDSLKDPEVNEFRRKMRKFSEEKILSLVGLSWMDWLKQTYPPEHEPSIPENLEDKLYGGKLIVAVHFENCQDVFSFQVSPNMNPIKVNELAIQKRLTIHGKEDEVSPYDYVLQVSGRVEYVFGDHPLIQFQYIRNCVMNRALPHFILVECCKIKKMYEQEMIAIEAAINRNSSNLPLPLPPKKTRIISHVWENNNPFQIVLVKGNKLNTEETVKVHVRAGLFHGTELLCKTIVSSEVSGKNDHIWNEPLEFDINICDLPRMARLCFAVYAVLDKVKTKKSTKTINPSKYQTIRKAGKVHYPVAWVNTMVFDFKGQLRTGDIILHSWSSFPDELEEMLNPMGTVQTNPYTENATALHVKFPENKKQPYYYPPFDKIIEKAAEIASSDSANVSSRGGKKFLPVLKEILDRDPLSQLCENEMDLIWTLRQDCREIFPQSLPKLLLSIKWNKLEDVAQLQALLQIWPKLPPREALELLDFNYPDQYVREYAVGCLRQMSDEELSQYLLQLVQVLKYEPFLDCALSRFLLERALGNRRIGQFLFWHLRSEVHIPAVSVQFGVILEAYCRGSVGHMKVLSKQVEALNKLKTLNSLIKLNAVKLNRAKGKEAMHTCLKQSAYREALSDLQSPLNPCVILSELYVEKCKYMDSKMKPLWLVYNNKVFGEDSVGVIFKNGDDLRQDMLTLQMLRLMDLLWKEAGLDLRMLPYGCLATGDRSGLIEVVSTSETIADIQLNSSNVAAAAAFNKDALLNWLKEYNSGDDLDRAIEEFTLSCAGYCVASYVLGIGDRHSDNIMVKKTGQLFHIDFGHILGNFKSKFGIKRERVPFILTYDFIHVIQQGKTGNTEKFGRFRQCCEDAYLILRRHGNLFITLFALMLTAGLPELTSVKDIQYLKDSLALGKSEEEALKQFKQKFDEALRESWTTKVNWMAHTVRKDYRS
Chain of PI3Kβ (P27986 whole entry partner, canonical isoform): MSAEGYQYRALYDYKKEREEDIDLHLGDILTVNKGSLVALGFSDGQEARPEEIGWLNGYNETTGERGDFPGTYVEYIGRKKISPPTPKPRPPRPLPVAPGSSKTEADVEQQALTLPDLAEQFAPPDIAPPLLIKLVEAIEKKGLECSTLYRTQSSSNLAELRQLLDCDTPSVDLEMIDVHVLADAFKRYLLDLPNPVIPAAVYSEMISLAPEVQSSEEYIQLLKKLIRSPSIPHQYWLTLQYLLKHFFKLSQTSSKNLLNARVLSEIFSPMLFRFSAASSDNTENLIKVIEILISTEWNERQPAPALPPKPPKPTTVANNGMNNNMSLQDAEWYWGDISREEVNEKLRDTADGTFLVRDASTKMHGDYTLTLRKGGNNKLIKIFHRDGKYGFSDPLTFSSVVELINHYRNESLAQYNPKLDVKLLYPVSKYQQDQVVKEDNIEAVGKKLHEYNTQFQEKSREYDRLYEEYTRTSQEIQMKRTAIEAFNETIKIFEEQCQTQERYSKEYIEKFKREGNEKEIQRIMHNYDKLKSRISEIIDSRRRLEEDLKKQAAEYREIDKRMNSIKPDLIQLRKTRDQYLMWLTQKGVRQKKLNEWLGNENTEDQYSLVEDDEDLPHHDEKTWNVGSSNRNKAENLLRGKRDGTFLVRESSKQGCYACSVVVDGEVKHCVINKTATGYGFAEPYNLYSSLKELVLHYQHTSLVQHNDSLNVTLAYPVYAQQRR
Procedure: as §1

[3] = TR-FRET, 2×Km ATP, 2 μM PIP2, PI3Kγ at 2 nM, incubated for 30 minutes at 25° C.

Chain of PI3Kγ (P48736 whole entry, canonical isoform): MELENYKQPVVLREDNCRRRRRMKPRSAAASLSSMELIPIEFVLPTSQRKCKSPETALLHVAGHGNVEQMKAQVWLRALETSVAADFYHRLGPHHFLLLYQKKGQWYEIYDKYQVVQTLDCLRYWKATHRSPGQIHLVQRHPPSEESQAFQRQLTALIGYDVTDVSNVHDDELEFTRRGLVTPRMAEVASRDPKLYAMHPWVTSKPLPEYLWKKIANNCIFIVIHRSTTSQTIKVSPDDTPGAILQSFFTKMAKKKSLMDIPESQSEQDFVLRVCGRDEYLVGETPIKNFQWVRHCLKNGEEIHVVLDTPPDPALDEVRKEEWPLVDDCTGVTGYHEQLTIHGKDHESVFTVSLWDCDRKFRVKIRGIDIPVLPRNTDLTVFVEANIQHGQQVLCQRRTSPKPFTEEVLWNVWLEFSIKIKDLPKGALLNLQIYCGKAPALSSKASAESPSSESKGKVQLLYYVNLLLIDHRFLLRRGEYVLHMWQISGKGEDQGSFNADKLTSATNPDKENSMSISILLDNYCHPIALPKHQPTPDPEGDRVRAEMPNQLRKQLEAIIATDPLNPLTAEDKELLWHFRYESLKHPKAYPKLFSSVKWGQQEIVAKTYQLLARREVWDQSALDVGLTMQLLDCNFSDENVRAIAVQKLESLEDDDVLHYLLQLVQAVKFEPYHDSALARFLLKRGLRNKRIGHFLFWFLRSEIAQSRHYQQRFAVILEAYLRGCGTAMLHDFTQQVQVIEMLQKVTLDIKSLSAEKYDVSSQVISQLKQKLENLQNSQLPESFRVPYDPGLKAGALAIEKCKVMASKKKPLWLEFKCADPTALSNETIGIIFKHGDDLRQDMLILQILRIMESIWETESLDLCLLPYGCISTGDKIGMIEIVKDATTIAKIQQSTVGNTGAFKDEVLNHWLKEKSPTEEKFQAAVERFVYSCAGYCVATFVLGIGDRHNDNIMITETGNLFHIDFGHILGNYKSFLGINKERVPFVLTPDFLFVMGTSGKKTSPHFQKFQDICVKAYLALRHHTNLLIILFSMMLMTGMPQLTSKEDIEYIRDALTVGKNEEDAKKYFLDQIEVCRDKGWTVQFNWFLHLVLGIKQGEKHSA
Chain of PI3Kγ (Q8WYR1 whole entry partner, canonical isoform): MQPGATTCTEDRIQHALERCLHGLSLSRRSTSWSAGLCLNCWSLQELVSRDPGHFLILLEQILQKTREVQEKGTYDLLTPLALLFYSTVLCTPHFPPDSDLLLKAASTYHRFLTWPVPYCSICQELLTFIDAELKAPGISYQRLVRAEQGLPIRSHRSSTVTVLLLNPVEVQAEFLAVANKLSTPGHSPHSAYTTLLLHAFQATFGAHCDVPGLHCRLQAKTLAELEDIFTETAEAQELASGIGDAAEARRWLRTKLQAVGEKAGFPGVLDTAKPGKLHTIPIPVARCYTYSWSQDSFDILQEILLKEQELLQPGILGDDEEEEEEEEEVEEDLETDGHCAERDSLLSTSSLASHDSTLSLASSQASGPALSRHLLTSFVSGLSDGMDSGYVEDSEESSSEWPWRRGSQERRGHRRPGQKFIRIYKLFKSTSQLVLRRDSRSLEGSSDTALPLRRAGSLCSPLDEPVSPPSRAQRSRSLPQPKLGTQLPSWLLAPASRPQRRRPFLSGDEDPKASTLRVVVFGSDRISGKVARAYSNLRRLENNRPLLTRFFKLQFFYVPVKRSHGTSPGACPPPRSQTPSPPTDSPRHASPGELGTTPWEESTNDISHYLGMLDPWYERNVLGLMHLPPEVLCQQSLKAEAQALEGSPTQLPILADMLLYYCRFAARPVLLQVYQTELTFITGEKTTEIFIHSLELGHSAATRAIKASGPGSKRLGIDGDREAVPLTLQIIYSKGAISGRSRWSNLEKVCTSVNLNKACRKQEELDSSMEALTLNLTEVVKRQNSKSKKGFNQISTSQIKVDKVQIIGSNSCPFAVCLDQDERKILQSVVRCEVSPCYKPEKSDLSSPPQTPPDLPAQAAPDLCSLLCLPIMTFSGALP

SMILES	IC50 [1, 3]	IC50 [2]	IC50 [1]	PI3Kγ/PI3Kβ ratio [2]	PI3Kγ/PI3Kβ ratio ([2]; listed as (S)-2,4-diamino-6-(1-(5-chloro-4-oxo-3-phenyl-3,4-dihydroquinazolin-2-yl)ethyl))
Cc1nc(N)nc(N[C@H](c2nc3c(Cl)ccc(Cl)c3c(=O)n2-c2cccc(C(N)=O)c2)C2CC2)c1C#N [Compound 13, (S)-3-(2-(((2-amino-5-cyano-6-methylpyrimidin-4-yl)amino)(cyclopropyl)methyl)-5,8-dichloro-4-oxoquinazolin-3(4H)-yl)benzamide]	0.51 µM	0.007 µM			
CCC[C@H](Nc1nc(N)nc(N)c1C#N)c1nc2c(Cl)ccc(Cl)c2c(=O)n1-c1cccc(C(N)=O)c1 [Compound 20, (S)-3-(5,8-dichloro-2-(1-((2,6-diamino-5-cyanopyrimidin-4-yl)amino)butyl)-4-oxoquinazolin-3(4H)-yl)benzamide]	1.4 µM	0.011 µM			
C[C@H](Nc1nc(N)nc(N)c1C#N)c1nc2c(Cl)cc(F)cc2c(=O)n1-c1cccc(C(N)=O)c1 [Compound 29]	0.44 µM	0.008 µM			
CCNC(=O)Nc1cccc(-n2c([C@@H](Nc3ncnc(N)c3C#N)[C@@H](C)CC)nc3cccc(Cl)c3c2=O)c1 [Compound 42, 1-(3-(2-((1S,2S)-1-((6-amino-5-cyanopyrimidin-4-yl)amino)-2-methylbutyl)-5-chloro-4-oxoquinazolin-3(4H)-yl)phenyl)-3-ethylurea]	> 10 µM	0.17 µM			
CCNC(=O)Nc1cccc(-n2c([C@@H](C)Nc3ncnc(N)c3C#N)nc3cccc(Cl)c3c2=O)c1 [Compound 44, (R)-1-(3-(2-(1-((6-amino-5-cyanopyrimidin-4-yl)amino)ethyl)-5-chloro-4-oxoquinazolin-3(4H)-yl)phenyl)-3-ethylurea]	> 10 µM	0.32 µM			
CCNC(=O)Nc1cccc(-n2c([C@H](C)Nc3ncnc(N)c3C#N)nc3cccc(C(F)(F)F)c3c2=O)c1 [Compound 51, (S)-1-(3-(2-(1-((6-amino-5-cyanopyrimidin-4-yl)amino)ethyl)-4-oxo-5-(trifluoromethyl)quinazolin-3(4H)-yl)phenyl)-3-ethylurea]		0.067 µM			
CCNC(=O)Nc1cccc(-n2c([C@H](C)Nc3ncnn4ccnc34)nc3cccc(Cl)c3c2=O)c1 [Compound 71, (S)-1-(3-(5-chloro-2-(1-(imidazo[2,1-f][1,2,4]triazin-4-ylamino)ethyl)-4-oxoquinazolin-3(4H)-yl)phenyl)-3-ethylurea]	2 µM	0.029 µM			
CCNC(=O)Nc1cccc(-n2c([C@H](C)Nc3ncnc(N)c3C#N)nc3cccc(Cl)c3c2=O)c1 [Compound 90, (S)-1-(3-(2-(1-((6-amino-5-cyanopyrimidin-4-yl)amino)ethyl)-5-chloro-4-oxoquinazolin-3(4H)-yl)phenyl)-3-ethylurea]	3.4 µM	0.005 µM			
C[C@H](Nc1ncnc(N)c1C#N)c1nc2cccc(Cl)c2c(=O)n1-c1cccc(NC(=O)Nc2ccc(F)cc2F)c1 [Compound 105, (S)-1-(3-(2-(1-((6-amino-5-cyanopyrimidin-4-yl)amino)ethyl)-5-chloro-4-oxoquinazolin-3(4H)-yl)phenyl)-3-(2,4-difluorophenyl)urea]	0.8 µM	0.003 µM			
N#Cc1c(N)ncnc1N[C@@H](COCc1ccccc1)c1nc2cccc(Cl)c2c(=O)n1-c1cccc(NC(=O)NCCCO)c1 [Compound 130, (R)-1-(3-(2-(1-((6-amino-5-cyanopyrimidin-4-yl)amino)-2-(benzyloxy)ethyl)-5-chloro-4-oxoquinazolin-3(4H)-yl)phenyl)-3-(3-hydroxypropyl)urea]		0.024 µM	> 10 µM		
C[C@H](Nc1nc(N)nc(N)c1C#N)c1nc2cccc(Cl)c2c(=O)n1-c1ccccc1 [Compound X, (S)-2,4-diamino-6-((1-(5-chloro-4-oxo-3-phenyl-3,4-dihydroquinazolin-2-yl)ethyl)amino)pyrimidine-5-carbonitrile, reference compound]				0.6	less than 1
